Drawing on patent US20240409585A1, “MACROCYCLIC IMMUNOMODULATORS” (priority 2021, published 2024), this text covers IC50 for 5 compounds.

This assay concerns the target T1, Alexa fluor-647 labeled human PD-L1-Ig binding to Jurkat cell line over-expressing human PD-1 (Homo sapiens, UniProt Q15116).
T1 construct: expressed in transfected cells; host or cells: Jurkat
The assay is described as follows: Jurkat-PD-1 Cell Binding High-Content Screening Assay (CBA): Method 3 (Alexa fluor-647 labeled PD-L1-Ig). To be noted: Jurkat-PD-1 cells, Alexa fluor-647 labeled PD-L1-Ig 177 nM. In outline: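 Jurkat cells over-expressing human PD-1 in RPMI/10% FCS were preincubated 2 h at 37 °C with compound, then exposed 1 h to Alexa fluor-647 labeled human PD-L1-Ig (177 nM final). Cells fixed in 4% paraformaldehyde with Hoechst 33342 and binding quantified by high-content imaging.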

[1] abbreviates: head μM, read-out: CBA Method 3 μM.

Read-outs that look alike come from different tables or passages of the source. Numbered stars: 1 amine (or outer) side, 2 acyl side, 3 side chain; on linkers, the order of the positions; unused ones are H or OH. Bridge positions count the residues as written; N and C are the ends. Square brackets hold non-standard residues; d marks the D form. Peptide text beside a SMILES is read from it. * marks the point of attachment. Bip(4'-COOH) = N[C@@H](Cc1ccc(-c2ccc(C(=O)O)cc2)cc1)C(=O)O; Bip(4'-NHAc) = CC(=O)Nc1ccc(-c2ccc(C[C@H](N)C(=O)O)cc2)cc1; Phe(3-CH2NH2) = O=C([C@H](Cc1cccc(CN[*:3])c1)N[*:1])[*:2]; Trp(1-CH2COOH) = N[C@@H](Cc1cn(CC(=O)O)c2ccccc12)C(=O)O; Phe(3-CF3) = N[C@@H](Cc1cccc(C(F)(F)F)c1)C(=O)O; Ala(morpholin-4-yl) = N[C@@H](CN1CCOCC1)C(=O)O; Phe(4-CONH2) = NC(=O)c1ccc(C[C@H](N)C(=O)O)cc1; Phe(4-COOH) = N[C@@H](Cc1ccc(C(=O)O)cc1)C(=O)O; Bip = N[C@@H](Cc1ccc(-c2ccccc2)cc1)C(=O)O; Phe(3-Me) = Cc1cccc(C[C@H](N)C(=O)O)c1; Abu(3S-NH2) = C[C@H](N)[C@H](N)C(=O)O; Val(3-OH) = CC(C)(O)[C@H](N)C(=O)O; hPhe = N[C@@H](CCc1ccccc1)C(=O)O; Cha = N[C@@H](CC1CCCCC1)C(=O)O; Carboxymethyl = O=C(O)C*; NMeA = CN[C@@H](C)C(=O)O; Orn = NCCC[C@H](N)C(=O)O; Dab = NCC[C@H](N)C(=O)O

T1 sequence (Q15116 25-288): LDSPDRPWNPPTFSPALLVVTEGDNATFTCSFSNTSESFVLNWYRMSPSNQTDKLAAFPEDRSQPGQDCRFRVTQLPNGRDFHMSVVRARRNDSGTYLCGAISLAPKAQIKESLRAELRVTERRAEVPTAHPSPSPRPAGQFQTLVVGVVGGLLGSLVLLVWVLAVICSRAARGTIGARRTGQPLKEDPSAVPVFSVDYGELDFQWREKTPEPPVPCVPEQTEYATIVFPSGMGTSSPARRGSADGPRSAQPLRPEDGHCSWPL

With `CC(C)C[C@H]1NC(=O)[C@H](C)N(C)C(=O)[C@H](CCC(N)=O)NC(=O)[C@H](Cc2ccc(-c3ccccc3)cc2)NC(=O)[C@H](CCc2ccccc2)NC(=O)[C@H](Cc2cccc(C(F)(F)F)c2)NC(=O)[C@H](CC(=O)O)NC(=O)[C@H](Cc2ccc(OCC(=O)O)cc2)NC(=O)[C@H](CC2CCCCC2)NC(=O)CSC[C@@H](C(=O)N[C@@H](CCN)C(N)=O)NC(=O)[C@H](CCC(=O)O)NC(=O)[C@H](C(C)C)NC(=O)[C@H](CC2CCCCC2)NC(=O)[C@H](CCN)NC1=O` [Example 5213] ({CH2CO}-[Cha]Y(Carboxymethyl)D[Phe(3-CF3)][hPhe][Bip]Q[NMeA][dL][Dab][Cha]VEC[Dab]-NH2; thioether N-14), the IC50 under setting [1] was 0.33 µM.

For the compound `CC(=O)Nc1ccc(-c2ccc(C[C@@H]3NC(=O)[C@H](Cc4cccc(C)c4)NC(=O)[C@H](CC(=O)O)NC(=O)[C@H](Cc4ccc(-c5ccc(C(=O)O)cc5)cc4)NC(=O)[C@H](CN4CCOCC4)NC(=O)CSC[C@@H](C(=O)N[C@@H](CCN)C(N)=O)NC(=O)[C@H](Cc4cnc[nH]4)NC(=O)[C@H](C(C)(C)O)NC(=O)[C@H](CC4CCCCC4)NC(=O)[C@H](CCN)NC(=O)[C@@H](CC(C)C)NC(=O)[C@H](C)N(C)C(=O)[C@H](Cc4ccc(OCC(=O)O)cc4)NC(=O)[C@H](Cc4ccc(-c5ccccc5)cc4)NC3=O)cc2)cc1` [Example 5134] ({CH2CO}-[Ala(morpholin-4-yl)][Bip(4'-COOH)]D[Phe(3-Me)][Bip(4'-NHAc)][Bip]Y(Carboxymethyl)[NMeA][dL][Dab][Cha][Val(3-OH)]HC[Dab]-NH2; thioether N-14), the IC50 under setting [1] is 0.03 µM.

For the compound `Cc1cccc(C[C@@H]2NC(=O)[C@H](CC(=O)O)NC(=O)[C@H](Cc3ccc(C(=O)O)cc3)NC(=O)[C@H]([C@H](C)N)NC(=O)CSC[C@@H](C(=O)N[C@@H](CCN)C(N)=O)NC(=O)[C@H](CCC(N)=O)NC(=O)[C@H](C(C)C)NC(=O)[C@H](CC3CCCCC3)NC(=O)[C@H](CCN)NC(=O)[C@@H](CC(C)C)NC(=O)[C@H](C)N(C)C(=O)[C@H](Cc3ccc(C(N)=O)cc3)NC(=O)[C@H](Cc3ccc(-c4ccccc4)cc3)NC(=O)[C@H](Cc3ccc(OCC(=O)O)cc3)NC2=O)c1` [Example 5119] ({CH2CO}-[Abu(3S-NH2)][Phe(4-COOH)]D[Phe(3-Me)]Y(Carboxymethyl)[Bip][Phe(4-CONH2)][NMeA][dL][Dab][Cha]VQC[Dab]-NH2; thioether N-14), the IC50 under setting [1] stood at 0.02 µM.

As to `Cc1cccc(C[C@@H]2NC(=O)[C@H](CC(=O)O)NC(=O)[C@H](Cc3ccc(OCC(=O)O)cc3)NC(=O)[C@H](Cc3cn(CC(=O)O)c4ccccc34)NC(=O)CSC[C@@H](C(=O)N[C@@H](CCN)C(N)=O)NC(=O)[C@H](CCCN)NC(=O)[C@H](C(C)C)NC(=O)[C@H](CC3CCCCC3)NC(=O)[C@H](CCN)NC(=O)[C@@H](CC(C)C)NC(=O)[C@H](C)N(C)C(=O)[C@H](CCC(N)=O)NC(=O)[C@H](Cc3ccc(-c4ccccc4)cc3)NC(=O)[C@H](Cc3ccc(C(=O)O)cc3)NC2=O)c1` [Example 5171] ({CH2CO}-[Trp(1-CH2COOH)]Y(Carboxymethyl)D[Phe(3-Me)][Phe(4-COOH)][Bip]Q[NMeA][dL][Dab][Cha]V[Orn]C[Dab]-NH2; thioether N-14), where the note is “nM, read-out: CBA Method 3”, the IC50 is 0.0044 µM.

On to `Cc1cccc(C[C@@H]2NC(=O)[C@H](CC(=O)O)NC(=O)[C@H](Cc3ccc(OCC(=O)O)cc3)NC(=O)[C@H](CC3CCCCC3)NC(=O)CSC[C@@H](C(=O)N[C@@H](CCN)C(N)=O)NC(=O)[C@H](CCCN)NC(=O)[C@H](C(C)C)NC(=O)[C@H](Cc3cccc(CN)c3)NC(=O)[C@H](CCN)NC(=O)[C@@H](CC(C)C)NC(=O)[C@H](C)N(C)C(=O)[C@H](CCC(N)=O)NC(=O)[C@H](Cc3ccc(-c4ccccc4)cc3)NC(=O)[C@H](Cc3ccc(C(=O)O)cc3)NC2=O)c1` [Example 5188] ({CH2CO}-[Cha]Y(Carboxymethyl)D[Phe(3-Me)][Phe(4-COOH)][Bip]Q[NMeA][dL][Dab][Phe(3-CH2NH2)]V[Orn]C[Dab]-NH2; thioether N-14), for which, under setting [1], the IC50 worked out at 0.05 µM.
